Source: the NIST ThermoML archive (doi:10.1016/j.tca.2008.06.010)
Values joined by “and” are separate entries in the source; they are usually repeats but may differ in a detail not shown here. Equal values may be shown once.

Experiments:
[1] = 293 K; 101.33 kPa; Crystal; X-ray diffraction
[2] = molar heat capacity at constant pressure; settings: 101.33 kPa, Crystal

[Nb+5].[Nb+5].[O-2].[O-2].[O-2].[O-2].[O-2].[O-2].[O-2].[Sr+2].[Sr+2] [niobium strontium oxide (Nb2Sr2O7)]
Settings	mass density [kg/m3]
[1]	5206

molar heat capacity at constant pressure, [2]
Settings	Relaxation time	Small sample (50 mg) DSC
2 K	0.006 J/K/mol	–
2.1 K	0.005 J/K/mol	–
2.2 K	0.006 J/K/mol	–
2.4 K	0.007 J/K/mol	–
2.5 K	0.008 J/K/mol	–
2.7 K	0.009 J/K/mol	–
2.9 K	0.01 J/K/mol	–
3.1 K	0.012 J/K/mol	–
3.2 K	0.015 J/K/mol	–
3.5 K	0.017 J/K/mol	–
3.7 K	0.02 J/K/mol	–
3.9 K	0.024 J/K/mol	–
4.2 K	0.03 J/K/mol	–
4.4 K	0.035 J/K/mol	–
4.7 K	0.043 J/K/mol	–
5 K	0.053 J/K/mol	–
5.4 K	0.064 J/K/mol	–
5.7 K	0.079 J/K/mol	–
6.1 K	0.097 J/K/mol	–
6.5 K	0.12 J/K/mol	–
6.9 K	0.15 J/K/mol	–
7.4 K	0.19 J/K/mol	–
7.9 K	0.23 J/K/mol	–
8.4 K	0.28 J/K/mol	–
8.9 K	0.35 J/K/mol	–
9.5 K	0.43 J/K/mol	–
10.1 K	0.53 J/K/mol	–
10.8 K	0.65 J/K/mol	–
11.5 K	0.8 J/K/mol	–
12.2 K	0.99 J/K/mol	–
13 K	1.21 J/K/mol	–
13.9 K	1.48 J/K/mol	–
14.8 K	1.82 J/K/mol	–
15.7 K	2.2 J/K/mol	–
16.7 K	2.69 J/K/mol	–
17.8 K	3.28 J/K/mol	–
19 K	3.97 J/K/mol	–
20.2 K	4.78 J/K/mol	–
21.5 K	5.72 J/K/mol	–
22.9 K	6.83 J/K/mol	–
24.3 K	8.09 J/K/mol	–
25.9 K	9.56 J/K/mol	–
27.6 K	11.22 J/K/mol	–
29.3 K	13.09 J/K/mol	–
31.2 K	15.16 J/K/mol	–
33.3 K	17.47 J/K/mol	–
35.4 K	20.05 J/K/mol	–
37.7 K	22.84 J/K/mol	–
40.2 K	25.86 J/K/mol	–
42.7 K	29.26 J/K/mol	–
45.5 K	32.91 J/K/mol	–
48.4 K	36.66 J/K/mol	–
51.6 K	40.57 J/K/mol	–
54.9 K	44.95 J/K/mol	–
58.4 K	49.55 J/K/mol	–
62.2 K	54.39 J/K/mol	–
66.2 K	59.43 J/K/mol	–
70.4 K	64.72 J/K/mol	–
75 K	70.3 J/K/mol	–
79.8 K	76.11 J/K/mol	–
84.9 K	82.05 J/K/mol	–
90.4 K	88.37 J/K/mol	–
96.2 K	95.08 J/K/mol	–
102.4 K	101.57 J/K/mol	–
115.9 K	115.3 J/K/mol	–
123.4 K	122.51 J/K/mol	–
131.3 K	129.76 J/K/mol	–
139.7 K	137.01 J/K/mol	–
148.6 K	144.41 J/K/mol	–
158.2 K	152.04 J/K/mol	–
168.3 K	158.82 J/K/mol	–
179 K	166.7 J/K/mol	–
190.5 K	173.8 J/K/mol	–
201.5 K	179.2 J/K/mol	–
203 K	180.19 J/K/mol	–
203.6 K	180.24 J/K/mol	–
205.7 K	181.22 J/K/mol	–
207.7 K	181.67 J/K/mol	–
209.7 K	183.21 J/K/mol	–
211.7 K	184.53 J/K/mol	–
213.8 K	185.64 J/K/mol	–
215.8 K	187.13 J/K/mol	–
217.8 K	188.51 J/K/mol	–
219.8 K	190.01 J/K/mol	–
221.8 K	191.02 J/K/mol	–
223.8 K	191.53 J/K/mol	–
225.9 K	192.06 J/K/mol	–
227.9 K	193.45 J/K/mol	–
229.9 K	193.04 J/K/mol	–
231.9 K	193.63 J/K/mol	–
233.9 K	194.26 J/K/mol	–
235.9 K	196.53 J/K/mol	–
238 K	196.42 J/K/mol	–
240 K	197.53 J/K/mol	–
242 K	197.69 J/K/mol	–
244 K	197.75 J/K/mol	–
246.1 K	198.29 J/K/mol	–
248.1 K	200 J/K/mol	–
250.1 K	200.61 J/K/mol	–
252.1 K	201.6 J/K/mol	–
254.1 K	202.35 J/K/mol	–
256.1 K	203.13 J/K/mol	–
258.1 K	203.04 J/K/mol	201.78 J/K/mol and 201.57 J/K/mol
260.2 K	205.33 J/K/mol	–
262.2 K	206.4 J/K/mol	–
264.2 K	207.59 J/K/mol	–
266.2 K	208.79 J/K/mol	–
268.2 K	209.43 J/K/mol	–
268.3 K	–	206.1 J/K/mol and 204.8 J/K/mol
270.2 K	210.44 J/K/mol	–
272.2 K	211.82 J/K/mol	–
274.3 K	212.04 J/K/mol	–
276.3 K	212.05 J/K/mol	–
278.3 K	212.41 J/K/mol	–
278.5 K	–	208.78 J/K/mol and 208.32 J/K/mol
280.3 K	212.81 J/K/mol	–
282.3 K	212.94 J/K/mol	–
284.3 K	213.33 J/K/mol	–
286.3 K	213.1 J/K/mol	–
288.3 K	213.9 J/K/mol	–
288.7 K	–	211.87 J/K/mol and 212.56 J/K/mol
290.4 K	214.19 J/K/mol	–
292.4 K	214.81 J/K/mol	–
294.4 K	215.93 J/K/mol	–
296.4 K	216.6 J/K/mol	–
298.4 K	219.18 J/K/mol	–
298.9 K	–	216.24 J/K/mol [middle of 10 runs]
300.4 K	218.65 J/K/mol	–
309.1 K	–	220.12 J/K/mol [middle of 11 runs]
319.4 K	–	223.23 J/K/mol [middle of 9 runs]
329.6 K	–	225.99 J/K/mol [middle of 11 runs]
339.8 K	–	228.99 J/K/mol [middle of 10 runs]
350 K	–	230.93 J/K/mol [middle of 11 runs]
